Laboratory results from patent publication US20210308089A1, “METHODS OF TREATING AND/OR PREVENTING VIRAL INFECTIONS AND/OR DISEASES CAUSED BY VIRUSES IN A SUBJECT IN NEED THEREOF” (priority 2020, published 2021).

How the values were obtained:
Assay type in all cases: in vivo, human
[1] = tested on: symptomatic COVID-19 outpatients with positive SARS-CoV-2 test; experiment: VASCEPA-COVID-19: FLU-PRO symptom prevalence and scores (and correlation with hs-CRP)
[2] = tested on: symptomatic COVID-19 outpatients with positive SARS-CoV-2 test; experiment: VASCEPA-COVID-19: adverse events
Source text: Safety monitoring was undertaken at each study visit in accordance with Health Canada regulations and local reporting guidelines. All serious, unexpected adverse drug reactions (ADRs) were reported to Health Canada in accordance with Division 5 of Part C of the Food and Drug Regulations.
An adverse event (AE) is defined as any untoward medical occurrence, including an exacerbation of a pre-existing condition, in a patient in a clinical investigation who received a pharmaceutical product.
The intensity of the AE should be judged based on the following: • a) Mild: Awareness of sign(s) or symptom(s) that is/are easily tolerated; • b) Moderate: Sufficient discomfort to cause interference with usual activity; or • c) Severe: Incapacitating or causing inability to work or to perform usual activities.

[3] = tested on: hs-CRP, D-dimer, ESR, blood counts, NLR, systemic immune-inflammation index; experiment: VASCEPA-COVID-19: inflammatory biomarkers, baseline to day 14 follow-up, IPE vs usual care
Description: This was a 14-day long, prospective, multi-site, two-armed, randomized, open-label study of approximately 100 individuals in Canada with a COVID-19-positive diagnosis or who have recently undergone testing for SARS-CoV-2. […] Blood samples are collected to determine if IPE use lowers circulating pro-inflammatory biomarkers.
Eligible patients were randomly allocated to the IPE group or the usual care group. Randomization was performed using envelope randomization via stratification using random permuted blocks. Patients allocated to the IPE group received a loading dose of 4 g IPE twice daily for 3 days followed by 2 g twice daily for 11 days. The usual care group received no intervention. Participant characteristics were obtained at baseline, while blood samples and clinical outcomes were obtained/measured at baseline and at follow-up.
The primary biomarker endpoint was the change in high-sensitivity C-reactive protein (hs-CRP) levels from baseline (day 1) to follow-up (day 14+3) within-groups. D-dimer, erythrocyte sedimentation rate (ESR), complete blood count, differential count, serum albumin levels, the neutrophil-to-lymphocyte ratio (NLR), and the systemic immune-inflammation index (defined by platelet count multiplied by NLR) from baseline to follow-up were secondary biomarker endpoints. The clinical endpoint was the change in InFLUenza Patient-Reported Outcome (FLU-PRO©) diary scores (total and domain breakdown). The FLU-PRO© score is designed to evaluate the presence, severity, and duration of influenza symptoms in clinical trials and standardize symptom assessment with respect to viral infections. The diary provides a comprehensive evaluation of symptomology over 32 distinct questions. Respondents answer on an ordinal scale from 0-4 across six domains: Body/Systemic, Chest/Respiratory, Eyes, Gastrointestinal, Nose, and Throat. The validity and reliability of the FLU-PRO© diary has been investigated. The ability to successfully adapt the measure for COVID-19 experimentation has also been explained (www.evidera.com/flu-pro/). […] Additional clinical endpoints included measuring FLU-PRO© symptom prevalence and investigating correlations between improvements in FLU-PRO© and decreases in hs-CRP levels.
Baseline characteristics, biomarkers, and clinical endpoints were described as frequencies and percentages (for categorical data) or medians with interquartile ranges (for continuous variables). Cohort comparisons were performed with the Wilcoxon Signed Rank (within-group), Mann-Whitney U (between group, continuous variables) or Fisher's Exact (between group, categorical variables) statistical tests. Within- and between-group p-values describing clinical (FLU-PRO©) score changes were conducted using a Wald test on least squares-mean estimated treatment difference, from an analysis of variance (ANOVA) model. Within- and between-group comparisons for the primary biomarker endpoint included median change from baseline. hs-CRP analyses were conducted with unadjusted and adjusted data (for sex, age [men <45 versus ≥45 years and women <55 versus ≥55 years], and baseline cardiovascular risk [absence or presence of cardiovascular comorbidities]). The model adjustments for baseline covariates were warranted based on current literature. Remaining unadjusted secondary biomarker data were evaluated via two-tailed within-group Wilcoxon Signed Rank Tests and between-group Mann-Whitney Tests. The prevalence and change from baseline total and individual domain FLU-PRO© scores were calculated as measures of alterations in symptom severity. Correlations between FLU-PRO© score improvement and hs-CRP reduction were calculated using the Spearman correlation coefficient. A p-value of less than 0.05 was considered significant without multiplicity adjustment, and all analyses were conducted using a modified intention-to-treat model.

[4] = n = 50, intention-to-treat, usual care 0
[5] = n = 50, intention-to-treat, usual care 6
[6] = 14 + 3 Days, n = 44, within-group P 0.07
[7] = 14 + 3 Days, n = 44, within-group P <0.01

With `CC/C=C\C/C=C\C/C=C\C/C=C\C/C=C\CCCC(=O)OCC` [icosapent ethyl, eicosapentaenoic acid ethyl ester] the “Total FLU-PRO symptom prevalence reduced by” value ([1]; 14+3-day follow-up) was 52%, the “Reduction in chest/respiratory symptoms (FLU-PRO prevalence)” value ([1]; baseline to follow-up) was 69% and the “Change in mean FLU-PRO score, total domain” value ([1]; baseline to follow-up, patients with non-zero treatment compliance) was −0.16. For the same compound, the “Discontinuations with the 8 g per day loading dose” value ([2]; VASCEPA-COVID-19) was “no discontinuations”, the Tolerability ([2]; VASCEPA-COVID-19, 14 days) was “well tolerated” and the “Serious AEs or deaths” value ([2]; VASCEPA-COVID-19 trial population) was “No serious AEs or deaths occurred”. For the same compound, the “Mild adverse events: Gastrointestinal disorders, %” value [2, 4] was 8%, the “Moderate adverse events: Gastrointestinal disorders, %” value [2, 4] was 2% and the “Moderate adverse events: Respiratory disorders, %” value [2, 5] was 2%. The “Total adverse events, %” value [2, 5] was 12%, the “hs-CRP median, 14 + 3 Days” value ([3]; 14 + 3 Days, n = 44, IQR 0.6, 4.4) was 1.6 mg/L and the “SII (systemic immune-inflammation index, median), 14 + 3 Days” value ([3]; 14 + 3 Days, n = 44, product of NLR*platelets, within-group P <0.01) was 4.319e+11 L⁻¹. For the same compound, the “WBC Differential, Lymphocytes (median), 14 + 3 Days” value ([3]; 14 + 3 Days, n = 44, within-group P 0.01) was 2.4e+09 L⁻¹, the “MCV (median), 14 + 3 Days” value ([3]; 14 + 3 Days, n = 44, within-group P 0.03) was 87.5 fL and the “NLR (neutrophil-lymphocyte ratio, median), 14 + 3 Days” value [3, 6] was 1.6. For the same compound, the “WBC Differential, Basophils (median), 14 + 3 Days” value [3, 6] was 0 L⁻¹, the “WBC Differential, Eosinophils (median), 14 + 3 Days” value [3, 6] was 1e+08 L⁻¹ and the “WBC Differential, Monocytes (median), 14 + 3 Days” value ([3]; 14 + 3 Days, n = 44, within-group P 0.08) was 6e+08 L⁻¹. The “RDW (median), 14 + 3 Days” value ([3]; 14 + 3 Days, n = 44, within-group P 0.14) was 12.5 % CV, the “eGFR (median), 14 + 3 Days” value ([3]; 14 + 3 Days, n = 44, within-group P 0.17) was 87.0 mL/min/1.73 m^2 and the “Lipid Assessment, Triglycerides (median), 14 + 3 Days” value ([3]; 14 + 3 Days, n = 44, within-group P 0.19) was 1.5 mmol/L. For the same compound, the “ESR (median), 14 + 3 Days” value ([3]; 14 + 3 Days, n = 44, within-group P 0.20) was 15.5 mm/hr, the “Creatinine (median), 14 + 3 Days” value ([3]; 14 + 3 Days, n = 44, within-group P 0.21) was 73.5 µmol/L and the “MCHC (median), 14 + 3 Days” value ([3]; 14 + 3 Days, n = 44, within-group P 0.22) was 339.5 g/L. For the same compound, the “MCH (median), 14 + 3 Days” value ([3]; 14 + 3 Days, n = 44, within-group P 0.40) was 29.4 pg, the “Albumin (median), 14 + 3 Days” value ([3]; 14 + 3 Days, n = 44, within-group P 0.88) was 43.0 g/L and the “HbA1C (median), 14 + 3 Days” value [3, 7] was 5.1%. For the same compound, the “Hematocrit (median), 14 + 3 Days” value [3, 7] was 0.4 L/L, the “Hemoglobin (median), 14 + 3 Days” value [3, 7] was 130.5 g/L and the “Lipid Assessment, HDL-C (median), 14 + 3 Days” value [3, 7] was 1.2 mmol/L. For the same compound, the “Lipid Assessment, LDL-C (median), 14 + 3 Days” value [3, 7] was 2.5 mmol/L, the “Lipid Assessment, Non-HDL-C (median), 14 + 3 Days” value [3, 7] was 3.3 mmol/L and the “Lipid Assessment, Total Cholesterol (median), 14 + 3 Days” value [3, 7] was 4.7 mmol/L. For the same compound, the “Platelet (median), 14 + 3 Days” value [3, 7] was 2.615e+11 L⁻¹, the “RBC Count (median), 14 + 3 Days” value [3, 7] was 4.7e+12 L⁻¹ and the “WBC Count (median), 14 + 3 Days” value [3, 7] was 7.3e+09 L⁻¹. The “WBC Differential, Neutrophils (median), 14 + 3 Days” value [3, 7] was 3.9e+09 L⁻¹, the “Albumin (median), Baseline” value ([3]; Baseline, n = 44) was 44.0 g/L and the “Creatinine (median), Baseline” value ([3]; Baseline, n = 44) was 74.0 µmol/L. The “D-dimer (median), Baseline” value ([3]; Baseline, n = 44) was 324.0 µg/L, the “ESR (median), Baseline” value ([3]; Baseline, n = 44) was 18.0 mm/hr and the “Erythrocyte Sedimentation Rate (median), Baseline” value ([3]; Baseline, n = 44) was 18.0 mm/hour. For the same compound, the “HbA1C (median), Baseline” value ([3]; Baseline, n = 44) was 5.2%, the “Hematocrit (median), Baseline” value ([3]; Baseline, n = 44) was 0.4 L/L and the “Hemoglobin (median), Baseline” value ([3]; Baseline, n = 44) was 139.5 g/L. For the same compound, the “Lipid Assessment, HDL-C (median), Baseline” value ([3]; Baseline, n = 44) was 1.1 mmol/L, the “Lipid Assessment, LDL-C (median), Baseline” value ([3]; Baseline, n = 44) was 2.2 mmol/L and the “Lipid Assessment, Non-HDL-C (median), Baseline” value ([3]; Baseline, n = 44) was 3.2 mmol/L. The “Lipid Assessment, Total Cholesterol (median), Baseline” value ([3]; Baseline, n = 44) was 4.3 mmol/L, the “Lipid Assessment, Triglycerides (median), Baseline” value ([3]; Baseline, n = 44) was 1.4 mmol/L and the “MCH (median), Baseline” value ([3]; Baseline, n = 44) was 30.0 pg. The “MCHC (median), Baseline” value ([3]; Baseline, n = 44) was 338.0 g/L, the “MCV (median), Baseline” value ([3]; Baseline, n = 44) was 86.5 fL and the “NLR (neutrophil-lymphocyte ratio, median), Baseline” value ([3]; Baseline, n = 44) was 1.7. For the same compound, the “Platelet (median), Baseline” value ([3]; Baseline, n = 44) was 2.27e+11 L⁻¹, the “RBC Count (median), Baseline” value ([3]; Baseline, n = 44) was 4.9e+12 L⁻¹ and the “RDW (median), Baseline” value ([3]; Baseline, n = 44) was 12.3 % CV. The “WBC Count (median), Baseline” value ([3]; Baseline, n = 44) was 6.1e+09 L⁻¹, the “WBC Differential, Basophils (median), Baseline” value ([3]; Baseline, n = 44) was 0 L⁻¹ and the “WBC Differential, Eosinophils (median), Baseline” value ([3]; Baseline, n = 44) was 1e+08 L⁻¹. The “WBC Differential, Lymphocytes (median), Baseline” value ([3]; Baseline, n = 44) was 1.9e+09 L⁻¹, the “WBC Differential, Monocytes (median), Baseline” value ([3]; Baseline, n = 44) was 5e+08 L⁻¹ and the “WBC Differential, Neutrophils (median), Baseline” value ([3]; Baseline, n = 44) was 3e+09 L⁻¹. The “eGFR (median), Baseline” value ([3]; Baseline, n = 44) was 86.0 mL/min/1.73 m^2, the “hs-CRP median, Baseline” value ([3]; Baseline, n = 44, IQR 0.9, 11.6) was 3.2 mg/L and the “SII (systemic immune-inflammation index, median), Baseline” value ([3]; Baseline, n = 44, product of NLR*platelets) was 3.398e+11 L⁻¹. For the same compound, the “D-dimer (median), Day 14 + 3” value ([3]; Day 14 + 3, n = 44, within-group P 0.048) was 286.5 µg/L, the “Erythrocyte Sedimentation Rate (median), Day 14 + 3” value ([3]; Day 14 + 3, n = 44, within-group P 0.20) was 15.5 mm/hour and the “Median hs-CRP change at follow-up” value ([3]; baseline (day 1) to day 14+3, 8 g/day for 3 days, then 4 g/day for 11 days) was -0.5 mg/L. For the same compound, the “hs-CRP Median Change from Baseline” value ([3]; baseline to day 14 + 3, n = 44, IQR −6.9, 0.4, within-group P 0.011, between-group P 0.082 unadjusted, 0.043 adjusted) was -0.5 mg/L, the “hs-CRP Median Percent Change from Baseline” value ([3]; baseline to day 14 + 3, n = 44, IQR −80.1, 26.7) was −25.0% and the “hs-CRP reduction from baseline levels” value ([3]; baseline to day 14+3, within IPE group) was 25%.
